Data from patent US9096832B2, “Differentiation of human embryonic stem cells” (LifeScan, Inc., priority 2007, dated 2015).
Several values for one entry are separate records, joined by “and”; a condition that tells them apart may be missing. Equal values may be shown once.

Experiments:
SA002 P38 cells = assay: Differentiation of SA002 ES line on […] to definitive endoderm (real-time PCR, FACS); format: cell-based, human; conditions: 20 ng/ml Wnt-3a with 100 ng/ml activin A
Excerpt: Expression of CXCR4 is depicted in FIG. 45: a) AA treatment b) AA+Wnt-3a c) AA+GSK-3B inhibitor.

[1] = test system: human embryonic stem cell line H9; assay: Cells from […] differentiated on MEFs: role of Wnt-3a (real-time PCR, FACS); format: cell-based
Method: Cells from the human embryonic stem cell line H9 cultured on […]™ for at least five passages were seeded onto MEF feeders in ES media.
At day 3 and 5, the cultures were analyzed by real time PCR for SOX-17, SOX-7, Alpha-fetal protein (AFP), CXCR4, Brychyury (Bry), gooscecoid (GSC), HNF-3 beta, GATA4, hTERT and Oct4. AFP and SOX-7 are regarded as visceral endoderm markers while GATA4, HNF-3beta and SOX-17 represent definite endoderm markers and GSC, Bry, and CXCR4 represent markers of primitive streak. hTERT and Oct-4 are markers for self renewal and pluripotency respectively. FACS analysis was also performed at day 3 and 5.

[2] = test system: human embryonic stem cell line H9; assay: Cytokine array (RayBiotech) of cell lysates and conditioned media, Activin A +/- Wnt3a (Table VII); format: cell-based; set-up: Angiogenin / BDNF / BMP-4 / BMP-6 / CK beta 8-1 / Eotaxin-3 / Flt-3 Ligand / Fractalkine / GCP-2 / GDNF / GM-CSF / I-309 / IFN-gamma / IGFBP-1 / IGFBP-2 / IGFBP-4 / IL-10 / IL-13 / IL-15 / IL-1alpha / IL-1beta / IL-1ra / IL-3 / IL-5 / Leptin / MCP-1 / MIP-1-delta / NT-3 / RANTES / SCF / TGF-beta 1 / TNF-beta / Acrp30 / AgRP / AxI / bFGF: unit not given here
Method: At passage 54, cells were differentiated in the presence of 100 ng/mlActivinA+/−10 ng/mlWnt3a for 2 days in 0.5% FBS DMEM/F12. […]
Cell lysates were prepared from cells of each treatment group, with a mammalian cell lysis kit (Sigma-Aldrich,MO). Conditioned media from each treatment group was collected and concentrated. Cytokine array analysis was completed using Cytokine Array panels provided by RayBiotech, GA (http://www.raybiotech.com/). […] For each panel, positive and negative controls are also included.

[3] = Cell conditioned media, H9 day 5, samples 1,2
[4] = Cell lysate, H9 day 5, samples 1,2

Wnt-3a
expression of DE markers in SA002 line (SA002 P38 cells): required addition of Wnt-3A for robust expression | role in differentiation of hES cells cultured on MEFs to definitive endoderm [1]: does not appear to play a significant role | AFP expression ([1]; Wnt-3a added to 100 ng/ml activin A): increase in the expression of AFP that increases over time | Acrp30 [2, 3]: 2,795.71 and 2,302.99 | AgRP [2, 3]: 651.26 and 482.21 | Amphiregulin [2, 3]: 619.07 and 782.60 | Angiogenin [2, 3]: 57,442.48 and 54,969.04 | Angiopoietin-2 [2, 3]: 65,959.24 and 71,664.21 | AxI [2, 3]: 610.40 and 748.34 | BDNF [2, 3]: 770.08 and 715.86 | BLC [2, 3]: 337.12 and 249.80 | BMP-6 [2, 3]: 985.70 and 670.60 | CK beta 8-1 [2, 3]: 42.78 and 75.44 | CNTF [2, 3]: 787.19 and 541.51 | EGF [2, 3]: 23,331.57 and 22,768.53 | Eotaxin-2 [2, 3]: 2,156.21 and 1,445.14 | Eotaxin-3 [2, 3]: 2,140.81 and 1,480.35 | FGF-6 [2, 3]: 3,283.94 and 2,519.78 | Flt-3 Ligand [2, 3]: 511.67 and 792.98 | Fractalkine [2, 3]: 359.37 and 367.15 | GCP-2 [2, 3]: 451.78 and 362.12 | GDNF [2, 3]: 443.22 and 509.66 | GM-CSF [2, 3]: 1,808.82 and 1,446.82 | I-309 [2, 3]: 318.30 and 288.36 | IFN-gamma [2, 3]: 1,238.97 and 1,435.08 | IGF-I [2, 3]: 254.98 and 187.77 | IGFBP-1 [2, 3]: 227.60 and 155.91 | IGFBP-2 [2, 3]: 42,215.53 and 43,934.33 | IGFBP-4 [2, 3]: 18,988.34 and 13,380.14 | IL-1alpha [2, 3]: 3,999.26 and 3,545.79 | IL-1beta [2, 3]: 316.59 and 278.30 | IL-1ra [2, 3]: 354.23 and 581.75 | IL-2 [2, 3]: 758.10 and 881.84 | IL-3 [2, 3]: 11,345.78 and 12,174.73 | IL-4 [2, 3]: 804.30 and 673.95 | IL-5 [2, 3]: 2,120.27 and 1,713.38 | IL-6 [2, 3]: 9,774.82 and 9,991.93 | IL-10 [2, 3]: 1,625.71 and 1,129.96 | IL-13 [2, 3]: 2,522.42 and 1,807.27 | IL-15 [2, 3]: 2,495.04 and 1,981.62 | IL-16 [2, 3]: 436.38 and 405.71 | LIGHT [2, 3]: 1,346.78 and 1,108.17 | Leptin [2, 3]: 7,238.71 and 4,886.99 | M-CSF [2, 3]: 740.98 and 684.01 | MCP-1 [2, 3]: 2,015.89 and 1,567.53 | MCP-2 [2, 3]: 694.78 and 694.07 | MCP-3 [2, 3]: 701.62 and 583.42 | MCP-4 [2, 3]: 231.02 and 276.62 | MIP-1-delta [2, 3]: 474.02 and 291.71 | MIP-3-alpha [2, 3]: 208.78 and 184.41 | NAP-2 [2, 3]: 371.35 and 343.68 | NT-3 [2, 3]: 571.57 and 427.51 | PARC [2, 3]: 474.02 and 363.80 | PDGF-BB [2, 3]: 2,635.37 and 2,005.09 | RANTES [2, 3]: 682.80 and 855.01 | SCF [2, 3]: 1,394.69 and 2,155.98 | SDF-1 [2, 3]: 326.85 and 616.95 | TGF-beta 1 [2, 3]: 1,827.65 and 1,849.18 | TGF-beta 3 [2, 3]: 294.34 and 343.68 | TNF-alpha [2, 3]: 2,609.70 and 2,167.71 | TNF-beta [2, 3]: 1,701.01 and 1,637.94 | bFGF [2, 3]: 1,226.99 and 1,241.09 | Acrp30 [2, 4]: 601.61 and 690.66 | AgRP [2, 4]: 77.82 and 89.00 | Angiogenin [2, 4]: 619.40 and 750.85 | AxI [2, 4]: 88.59 and 139.03 | BDNF [2, 4]: 763.51 and 951.45 | BLC [2, 4]: 742.24 and 476.36 | BMP-4 [2, 4]: 348.44 and 304.48 | BMP-6 [2, 4]: 571.23 and 641.05 | CK beta 8-1 [2, 4]: 22.48 and 21.54 | CNTF [2, 4]: 1,382.51 and 1,060.82 | EGF [2, 4]: 742.24 and 984.39 | Eotaxin [2, 4]: 301.87 and 253.80 | Eotaxin-3 [2, 4]: 934.12 and 847.56 | Flt-3 Ligand [2, 4]: 857.45 and 795.19 | Fractalkine [2, 4]: 792.02 and 456.51 | GCP-2 [2, 4]: 593.71 and 538.86 | GDNF [2, 4]: 436.75 and 444.68 | GM-CSF [2, 4]: 1,343.17 and 1,161.75 | I-309 [2, 4]: 708.52 and 743.25 | IFN-gamma [2, 4]: 1,202.67 and 1,037.60 | IGFBP-1 [2, 4]: 59.41 and 85.73 | IGFBP-2 [2, 4]: 2,671.90 and 2,414.72 | IGFBP-4 [2, 4]: 4,459.85 and 4,173.19 | IL-1alpha [2, 4]: 1,612.93 and 1,421.89 | IL-1beta [2, 4]: 352.05 and 312.08 | IL-1ra [2, 4]: 302.68 and 198.48 | IL-3 [2, 4]: 2,119.94 and 1,497.48 | IL-4 [2, 4]: 625.42 and 638.94 | IL-5 [2, 4]: 1,245.23 and 1,167.24 | IL-10 [2, 4]: 1,222.75 and 1,096.30 | IL-13 [2, 4]: 1,486.89 and 1,407.96 | IL-15 [2, 4]: 1,677.16 and 1,601.79 | IL-16 [2, 4]: 651.11 and 668.50 | Leptin [2, 4]: 1,234.39 and 1,091.65 | M-CSF [2, 4]: 852.63 and 867.83 | MCP-1 [2, 4]: 1,022.03 and 1,076.03 | MCP-3 [2, 4]: 1,184.61 and 1,255.50 | MCP-4 [2, 4]: 1,380.51 and 1,606.86 | MDC [2, 4]: 269.36 and 280.41 | MIG [2, 4]: 1,113.16 and 1,137.26 | MIP-1-delta [2, 4]: 491.75 and 322.22 | MIP-3-alpha [2, 4]: 1,602.09 and 1,399.93 | NT-3 [2, 4]: 316.73 and 275.76 | PARC [2, 4]: 352.85 and 353.04 | PDGF-BB [2, 4]: 517.84 and 597.56 | RANTES [2, 4]: 724.98 and 637.25 | SCF [2, 4]: 1,152.50 and 1,021.13 | TARC [2, 4]: 372.93 and 343.33 | TGF-beta 1 [2, 4]: 1,426.67 and 1,240.30 | TNF-alpha [2, 4]: 2,851.74 and 1,285.91 | TNF-beta [2, 4]: 1,049.33 and 1,026.62 | bFGF [2, 4]: 11,722.95 and 21,398.52 | Angiogenin, IGFBP-1 and EGF ([2]; cell conditioned media): Noticeable upregulation | proteins including IGFBP-1, TGFbeta-1 and TGFbeta-3 ([2]; cell lysates): upregulated
